In a melting point compilation (Tetko et al.):

| SMILES | melting point |
| --- | --- |
| Cc1nn(C)c2nc(C(C)C)cc(C(=O)O)c12 | 211 to 213 °C |
| CC(C)CN(C(=O)CCl)C1CCS(=O)(=O)C1 (configuration not stated) | 150 to 155 °C |
| Sc1nnc(CCc2ccccc2)o1 | 92 to 94 °C |
| CN(C)S(=O)(=O)c1ccc(F)c(N)c1 | 104 to 106 °C |
| CCOC(=O)CN1CCN(S(=O)(=O)c2ccccc2)CC1 | 75 to 77 °C |
| CS(=O)(=O)c1ccc2c(c1)NC(=O)CO2 | 229 to 231 °C |
| CS(=O)(=O)N1CCCC1C#N (configuration not stated) | 62 to 64 °C |
| Cc1ccc(Cl)c2ccc(N)nc12 | 104 to 106 °C |
| Cc1n[nH]c2cc(N)ccc12 | 189 to 191 °C |
| COc1ccc(CNc2ccncn2)cc1OC | 124 to 126 °C |
| NNC(=O)c1ccc(S(=O)(=O)N2CCN(Cc3ccccc3)CC2)cc1 | 135 to 137 °C |
| O=C(O)C1COc2ccc(Br)cc21 (configuration not stated) | 114 to 116 °C |
| COc1ccc(C(N)c2ccccc2OC)cc1 (configuration not stated) | 58 to 60 °C |
| CNS(=O)(=O)c1ccc(C(C)=O)cc1 | 109 to 111 °C |
| NC(C(=O)O)c1cccc(F)c1 (configuration not stated) | 273 to 275 °C |
| Cc1nc(-c2cccc(N)c2)n[nH]1 | 56 to 58 °C |
| NCCN1C(=O)C2C3C=CC(C3)C2C1=O (configuration not stated) | 69 to 71 °C |
| O=C(O)c1nc(-c2cccs2)n(-c2cccc(F)c2)n1 | 162 to 164 °C |
| CS(=O)(=O)c1ccc(NN)cc1 | 132 to 134 °C |
| Cc1c(C(=O)O)oc2c(Cl)cc(Br)cc12 | 272 to 274 °C |
| COCc1cccc(C(=O)O)c1 | 64 to 66 °C |
| COC(=O)c1ccc(C(=O)OC)c(S(=O)(=O)Cl)c1 | 63 to 67 °C |
| Oc1ccc(-c2ccc(F)cc2)nn1 | 269 to 271 °C |
| NCc1ccnc(N2CCCC2)n1 | 63 to 65 °C |

| SMILES | melting point |
| --- | --- |
| Cc1cc(C(=O)O)sc1-c1ccc(F)cc1 | 206 to 208 °C |
| Cc1nn(C)c2ncc(C#N)cc12 | 176 to 178 °C |
| COc1ccc(CCc2nnc(N)o2)cc1 | 216 to 218 °C |
| Cc1cc(C)cc(C=CC(=O)O)c1 | 135 to 137 °C |
| Cc1nc(-c2ccc(N)cc2)co1 | 112 to 114 °C |
| O=C(O)CNC(=O)c1ccc(Br)o1 | 91 to 93 °C |
| O=C1CCOc2c(F)cc(F)cc21 | 135 to 137 °C |
| CCN(CC)S(=O)(=O)c1cc(C(=O)O)ccc1F | 159 to 161 °C |
| O=C1CCc2cc(S(=O)(=O)Cl)ccc2N1 | 205 to 207 °C |
| O=C(O)c1nnn(-c2ccccc2F)c1C(F)(F)F | 133 to 135 °C |
| COc1ccc2c(c1)OCC2CC(=O)O (configuration not stated) | 94 to 96 °C |
| CCC(C)[C@H](NC(=O)N1CCCC1)C(=O)O (some centres not stated) | 147 to 149 °C |
| Nc1cnccc1SCCCO | 71 to 73 °C |
| COc1cn(-c2cccc(C(F)(F)F)c2)nc1C(=O)O | 149 to 151 °C |
| NNc1ncnc2sccc12 | 211 to 213 °C |
| Nc1cccc(Cl)c1-n1cncn1 | 122 to 124 °C |
| O=C(c1ccc(S(=O)(=O)Cl)cc1)N1CCCCC1 | 97 to 99 °C |
| CC(=O)N1CSCC1C(=O)O (configuration not stated) | 111 to 113 °C |
| O=C(O)C1CCCN1c1ncc(C(F)(F)F)cc1Cl (configuration not stated) | 99 to 101 °C |
| COC(=O)c1cc(F)c(F)cc1N | 79 to 81 °C |
| CCc1nc(COc2ccc(C(=O)OC)cc2)no1 | 44 to 46 °C |
| Cc1ncsc1-c1cnco1 | 96 to 98 °C |
| CCOc1ccc(OC)cc1N | 45 to 47 °C |
| N#CCc1coc(-c2ccccc2)n1 | 87 to 89 °C |

| SMILES | melting point |
| --- | --- |
| O=C(O)c1cc(Cl)c2cc(Cl)ccc2n1 | 194 to 196 °C |
| O=C(O)c1cc(-c2ccccc2)nc2c1cnn2Cc1cccnc1 | 210 to 212 °C |
| CCOCCCNC(N)=S | 84 to 86 °C |
| O=C1OC(CCl)CN1c1ccccc1 (configuration not stated) | 103 to 105 °C |
| CN(C)C(=O)Cn1ccc2cc(N)ccc21 | 124 to 126 °C |
| O=C1NC(=O)C(c2cccc(Br)c2)N1 (configuration not stated) | 185 to 187 °C |
| CC(C)NC(=O)Nc1ccc(O)c(C(=O)O)c1 | 192 to 194 °C |
| CC(NC(=O)CCl)c1ccc2c(c1)CCCC2 (configuration not stated) | 134 to 136 °C |
| C=CC(=O)Nc1cccc(C(F)(F)F)c1 | 79 to 81 °C |
| O=C(O)CC(O)(c1ncc[nH]1)C(F)(F)F (configuration not stated) | 208 to 210 °C |
| CN1CCc2cc(C=O)ccc21 | 38 to 40 °C |
| N#Cc1ccc(N2CCN(c3ccccn3)CC2)nc1 | 165 to 167 °C |
| O=C(O)CCn1ccccc1=O | 146 to 148 °C |
| CC(C)Cn1[nH]c(-c2ccccc2)cc1=N | 99 to 101 °C |
| CC1(c2ccncc2)NC(=O)NC1=O (configuration not stated) | 231 to 233 °C |
| CC(C)COc1ccc(-c2nn(-c3ccccc3)cc2C=O)cc1 | 100 to 102 °C |
| O=C(O)CSc1nnc(-c2ccc(Cl)cc2Cl)[nH]1 | 161 to 163 °C |
| O=C1CCc2c(F)ccc(Br)c21 | 129 to 131 °C |
| Cc1ccc(C)c(SCc2nc3sc(C(=O)O)c(C)c3c(=O)[nH]2)c1 | 295 to 297 °C |
| CC(=O)c1c[nH]c2cc(Br)ccc12 | 239 to 241 °C |
| NC(=NO)c1ccc(N2CCCCC2)nc1 | 165 to 167 °C |
| O=C(O)c1oc2ccccc2c1CSc1nnc[nH]1 | 159 to 161 °C |
| Cc1ccc([N+](=O)[O-])c(C)c1S(=O)(=O)Cl | 62 to 64 °C |
| O=[N+]([O-])c1ccc(O)nc1Cl | 199 to 201 °C |

| SMILES | melting point |
| --- | --- |
| O=S(=O)(Cl)c1ccc(-n2cnnn2)cc1 | 179 to 181 °C |
| N#Cc1ccc(Oc2ccccc2C(F)(F)F)nc1 | 80 to 82 °C |
| O=C(O)c1cscn1 | 195 to 197 °C |
| COc1ccccc1NS(=O)(=O)c1cccc(C(=O)O)c1 | 156 to 158 °C |
| NCC1(C(N)=O)CCOCC1 | 113 to 115 °C |
| O=Cc1ccccc1OCc1cn2ccccc2n1 | 123 to 125 °C |
| CCn1c(C(C)=O)nc2ccccc21 | 76 to 78 °C |
| Cc1cc(C=O)c(C)n1-c1ccc(F)c(F)c1F | 89 to 91 °C |
| ClCc1ncc(-c2ccccc2)s1 | 39 to 41 °C |
| O=Cc1cnc(-c2ccccn2)s1 | 149 to 151 °C |
| Cc1coc(-c2cc(N)ccc2C)n1 | 52 to 54 °C |
| O=C(O)c1cn(-c2cccc([N+](=O)[O-])c2)nn1 | 159 to 161 °C |
| CS(=O)(=O)c1c(N)cccc1Cl | 97 to 99 °C |
| O=C(O)c1cn(Cc2cccnc2)nn1 | 206 to 208 °C |
| Cc1ccc(C(=O)O)cc1NCc1ccc(Br)o1 | 125 to 127 °C |
| Cc1ccc2ccccc2c1S(=O)(=O)Cl | 76 to 78 °C |
| O=C(O)C1SCCc2ccccc21 (configuration not stated) | 130 to 132 °C |
| CC(C)c1ccc(/C=C(/C(=O)O)c2cccs2)cc1 | 250 to 252 °C |
| CC(Oc1ccc(Br)cc1)C(=O)O (configuration not stated) | 118 to 120 °C |
| CN1C(=O)CCC(C(N)=O)C1c1ccc(C(F)(F)F)cc1 (configuration not stated) | 239 to 241 °C |
| O=S1(=O)CCC(I)CC1 | 124 to 126 °C |
| O=C(O)COCc1nc2ccccc2c(=O)[nH]1 | 259 to 261 °C |
| COc1ccc2cc(/C=C/C(=O)O)ccc2c1 | 183 to 195 °C |
| O=C(NCCCCl)C1CCCC1 | 66 to 68 °C |

| SMILES | melting point |
| --- | --- |
| NC(=O)NCC1CC1 | 117 to 119 °C |
| CCOc1cc2nccc(Cl)c2cc1OCC | 72 to 74 °C |
| COC(=O)C1CCc2cn[nH]c2C1 (configuration not stated) | 64 to 66 °C |
| Cc1ccc(OCc2nc(N)no2)cc1 | 144 to 146 °C |
| Cc1[nH]c(=O)c(C#N)c(C)c1CCC(=O)O | 253 to 257 °C |
| N#Cc1ccnc(Cl)c1[N+](=O)[O-] | 74 to 76 °C |
| CCOc1ccc(C(=O)N(C)C)cc1N | 127 to 129 °C |
| Nc1ccc(S(=O)(=O)Nc2nncs2)cc1 | 211 to 213 °C |
| O=C(O)CC1=NN(c2ccc(Cl)cc2Cl)C(=O)C1 | 179 to 181 °C |
| N#Cc1cc(F)cc(CO)c1 | 59 to 61 °C |
| COC(=O)c1c(CC(=O)O)[nH]c(C(C)=O)c1C | 205 to 207 °C |
| CCN(CC)S(=O)(=O)c1ccc(CC#N)nc1 | 72 to 74 °C |
| CN(C1CCCCC1)S(=O)(=O)c1cccc(N)c1 | 109 to 111 °C |
| CC(C)Nc1nc(COc2ccccc2)no1 | 86 to 88 °C |
| CCOc1ccc(S(=O)(=O)N2CCNCC2)cc1OCC | 132 to 134 °C |
| O=Cc1cc(C(=O)O)co1 | 165 to 167 °C |
| NC(=O)CCCCCl | 76 to 78 °C |
| CCc1ccc(-c2nn[nH]n2)cc1 | 237 to 239 °C |
| Nc1ccc(-c2ncco2)cc1 | 104 to 106 °C |
| Cc1c(C(=O)O)cnn1Cc1ccccc1 | 172 to 174 °C |
| CCOC(=O)/C(=C(/O)C(C)Cl)c1nc(C)cs1 (configuration not stated) | 123 to 125 °C |
| NS(=O)(=O)c1cccc(NC(=O)CCl)c1 | 162 to 171 °C |
| CC1CN(S(=O)(=O)Cl)CC(C)O1 (configuration not stated) | 74 to 76 °C |
| O=C(O)c1cc(Cl)cc(Cl)c1OC(F)F | 128 to 132 °C |

| SMILES | melting point |
| --- | --- |
| CC(C)CCNS(=O)(=O)c1ccc(Cl)nc1 | 91 to 93 °C |
| CN(C)c1ccc(C2CC2C(=O)O)cc1 (configuration not stated) | 119 to 121 °C |
| O=C(O)c1ccc(Sc2ccccn2)cc1 | 179 to 181 °C |
| C=CCc1ccc(OCC(=O)O)c(OC)c1 | 169 to 172 °C |
| CC(C)c1ccc(C(=O)CC#N)cc1 | 91 to 93 °C |
| COc1ccc2c(c1)c(C(=O)O)c(C)n2C1CC1 | 199 to 201 °C |
| Cc1nn(-c2ccc(Cl)cc2)c(C)c1CC(=O)O | 178 to 180 °C |
| COc1cc(C=O)ccc1OS(=O)(=O)c1cc(C)ccc1C | 82 to 84 °C |
| CNS(=O)(=O)c1ccccc1CN | 115 to 117 °C |
| CCOc1ccc(S(=O)(=O)N(C)c2ccc(O)cc2)cc1 | 129 to 133 °C |
| Cc1nc(COc2ccc(Cl)cc2)sc1C(=O)O | 239 to 241 °C |
| CC(C)(C(=O)O)C(O)c1ccc(OCc2ccccc2)cc1 (configuration not stated) | 167 to 169 °C |
| O=S1(=O)CCC(Cc2nc3ccccc3[nH]2)C1 (configuration not stated) | 156 to 158 °C |
| COc1ccc2[nH]c3c(c2c1)CCCC3 | 59 to 61 °C |
| O=C(CCl)NC(=O)Nc1ccccc1 | 161 to 163 °C |
| O=C(Nc1nccs1)C(Cl)(Cl)Cl | 203 to 205 °C |
| CCC1(c2ccc(O)cc2)NC(=O)NC1=O (configuration not stated) | 279 to 281 °C |
| O=C(O)c1cccc(NC(=O)c2ccco2)c1 | 224 to 226 °C |
| O=C(CCc1ccccc1)c1ccccc1O | 36 to 37 °C |
| O=C(O)c1cc(Br)ccc1F | 179 to 182 °C |
| COc1ccccc1C(=O)CC#N | 71 to 75 °C |
| O=C(O)CCC(NC(=O)c1ccccc1)C(=O)O (configuration not stated) | 133 to 135 °C |
